The target of this experiment is T1, PRMT5/MEP50 (Homo sapiens, UniProt O14744).
T1 construct: Expressed full-length human Flag-PRMT5/6His-MeP50 protein complex was purified; made in house; host or cells: Spodoptera frugiperda (SF9) insect cells, baculovirus (pDEST8)
T1 sequence (O14744 with tags, fused parts or gaps): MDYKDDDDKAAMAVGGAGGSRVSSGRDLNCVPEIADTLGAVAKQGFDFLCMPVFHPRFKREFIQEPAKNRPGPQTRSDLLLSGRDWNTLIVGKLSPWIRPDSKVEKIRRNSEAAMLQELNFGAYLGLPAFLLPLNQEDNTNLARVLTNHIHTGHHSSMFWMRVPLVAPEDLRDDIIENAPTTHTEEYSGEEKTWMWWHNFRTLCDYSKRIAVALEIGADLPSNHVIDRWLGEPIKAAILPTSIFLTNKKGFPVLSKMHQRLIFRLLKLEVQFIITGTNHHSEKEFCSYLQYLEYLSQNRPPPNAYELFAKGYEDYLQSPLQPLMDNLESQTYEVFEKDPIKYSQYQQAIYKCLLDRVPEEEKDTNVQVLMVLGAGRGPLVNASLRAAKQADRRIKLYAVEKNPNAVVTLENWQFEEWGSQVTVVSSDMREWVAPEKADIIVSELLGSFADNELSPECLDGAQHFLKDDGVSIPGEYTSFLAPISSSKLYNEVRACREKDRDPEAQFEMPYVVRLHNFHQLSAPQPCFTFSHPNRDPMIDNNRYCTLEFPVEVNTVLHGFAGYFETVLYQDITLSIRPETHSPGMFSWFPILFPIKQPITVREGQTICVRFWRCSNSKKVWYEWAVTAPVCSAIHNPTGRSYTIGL
T1 sequence (Q9BQA1 with tags, fused parts or gaps partner limits assumed): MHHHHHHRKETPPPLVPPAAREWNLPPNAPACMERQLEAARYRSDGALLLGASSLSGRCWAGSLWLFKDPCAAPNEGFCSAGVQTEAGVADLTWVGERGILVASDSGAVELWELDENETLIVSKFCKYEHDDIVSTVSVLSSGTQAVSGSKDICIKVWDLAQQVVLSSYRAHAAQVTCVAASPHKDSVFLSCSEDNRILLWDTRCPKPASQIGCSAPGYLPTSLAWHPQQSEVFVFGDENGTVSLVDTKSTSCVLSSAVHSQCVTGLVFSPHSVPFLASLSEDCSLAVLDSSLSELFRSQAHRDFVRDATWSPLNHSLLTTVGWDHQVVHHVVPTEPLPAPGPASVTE
Put plainly: PRMT5 Biochemical Assay (PRMT5/MEP50 enzyme assay on peptide substrate, 3H-SAM Flashplate). The conditions noted are these: Table D-2; read-out: Biochemical IC50.
In the case of `Cn1cnc2cnc(-c3cccc(OCC(O)CN4CCc5ccccc5C4)c3)nc21` (stereo not drawn) [Compound D191], the IC50 lay within 101 to 1000 nM.

As to `O=C1NCc2ccc(-c3cccc(OCC(O)CN4CCc5ccccc5C4)c3)cc21` (stereo not drawn) [Compound D148], the half-inhibitory concentration (IC50) lay within 101 to 1000 nM.

As to `N#Cc1cccc(-c2cccc(OCC(O)CN3CCc4ccccc4C3)c2)c1` (stereo not drawn) [Compound D172], the concentration for half-maximal inhibition (IC50) is 101 to 1000 nM.

As for `Cn1ccc2cnc(-c3cccc(OCC(O)CN4CCc5ccccc5C4)c3)nc21` (stereo not drawn) [Compound D141], the IC50 was under 100 nM.

As to `OC(COc1cccc(-c2cccnc2F)c1)CN1CCc2ccccc2C1` (stereo not drawn) [Compound D139], the IC50 fell in the range of 101 to 1000 nM.

Turning to `Cc1ccncc1-c1cccc(OCC(O)CN2CCc3ccccc3C2)c1` (stereo not drawn) [Compound D113], the IC50 fell in the range of 101 to 1000 nM.
